Measurements as given in PubChem BioAssay (NCI).
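Method: 48-hour compound exposure of cells in 96-well plates, five concentrations, linear interpolation of endpoints. Definition used: TGI = concentration required for complete inhibition of growth.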

How the values were obtained:
Assay in all cases: NCI tumour cell line growth inhibition, 48 h
[1] = test system: 786-0 renal
[2] = test system: A498 renal
[3] = test system: A549 NSCLC
[4] = test system: ACHN renal
[5] = test system: CAKI-1 renal
[6] = test system: CCRF-CEM leukemia
[7] = test system: COLO 205 colon
[8] = test system: DLD-1 colon
[9] = test system: DMS 114 small cell lung
[10] = test system: DMS 273 small cell lung
[11] = test system: EKVX NSCLC
[12] = test system: HCC-2998 colon
[13] = test system: HCT-116 colon
[14] = test system: HCT-15 colon
[15] = test system: HL-60(TB) leukemia
[16] = test system: HOP-18 NSCLC
[17] = test system: HOP-62 NSCLC
[18] = test system: HOP-92 NSCLC
[19] = test system: HT29 colon
[20] = test system: IGROV1 ovarian
[21] = test system: K-562 leukemia
[22] = test system: KM12 colon
[23] = test system: KM20L2 colon
[24] = test system: LOX IMVI melanoma
[25] = test system: LXFL 529 NSCLC
[26] = test system: M14 melanoma
[27] = test system: M19-MEL melanoma
[28] = test system: MALME-3M melanoma
[29] = test system: MOLT-4 leukemia
[30] = test system: NCI-H226 lung
[31] = test system: NCI-H23 lung
[32] = test system: NCI-H460 lung
[33] = test system: OVCAR-3 ovarian
[34] = test system: OVCAR-4 ovarian
[35] = test system: OVCAR-5 ovarian
[36] = test system: OVCAR-8 ovarian
[37] = test system: RPMI-8226 leukemia
[38] = test system: RXF 393 renal
[39] = test system: SF-268 CNS
[40] = test system: SF-295 CNS
[41] = test system: SF-539 CNS
[42] = test system: SK-MEL-2 melanoma
[43] = test system: SK-MEL-28 melanoma
[44] = test system: SK-MEL-5 melanoma
[45] = test system: SK-OV-3 ovarian
[46] = test system: SN12C renal
[47] = test system: SNB-19 CNS
[48] = test system: SNB-75 CNS
[49] = test system: SNB-78 CNS
[50] = test system: SR leukemia
[51] = test system: SW-620 colon
[52] = test system: TK-10 renal
[53] = test system: UACC-257 melanoma
[54] = test system: UACC-62 melanoma
[55] = test system: UO-31 renal
[56] = test system: BT-549 breast
[57] = test system: DU-145 prostate
[58] = test system: HS 578T breast
[59] = test system: MCF7 breast
[60] = test system: MDA-MB-231 breast
[61] = test system: MDA-MB-435
[62] = test system: MDA-N
[63] = test system: NCI-H522 lung
[64] = test system: NCI/ADR-RES ovarian
[65] = test system: PC-3 prostate
[66] = test system: T-47D breast
[67] = test system: U251 CNS
[68] = test system: XF 498 CNS

O=C(Nc1cccc(C(F)(F)F)c1)C(=O)C1NC(=S)NC1=O (centres undefined)
TGI [1]: > 100 µM | TGI [2]: > 100 µM | TGI [3]: > 100 µM | TGI [4]: > 100 µM | TGI [5]: > 100 µM | TGI [6]: > 100 µM | TGI [7]: > 100 µM | TGI [8]: > 100 µM | TGI [9]: > 100 µM | TGI [10]: > 100 µM | TGI [11]: > 100 µM | TGI [12]: > 100 µM | TGI [13]: > 100 µM | TGI [14]: > 100 µM | TGI [15]: > 100 µM | TGI [16]: > 100 µM | TGI [17]: > 100 µM | TGI [18]: > 100 µM | TGI [19]: > 100 µM | TGI [20]: > 100 µM | TGI [21]: > 100 µM | TGI [22]: > 100 µM | TGI [23]: > 100 µM | TGI [24]: > 100 µM | TGI [25]: > 100 µM | TGI [26]: > 100 µM | TGI [27]: > 100 µM | TGI [28]: > 100 µM | TGI [29]: > 100 µM | TGI [30]: > 100 µM | TGI [31]: > 100 µM | TGI [32]: > 100 µM | TGI [33]: > 100 µM | TGI [34]: > 100 µM | TGI [35]: > 100 µM | TGI [36]: > 100 µM | TGI [37]: > 100 µM | TGI [38]: > 100 µM | TGI [39]: > 100 µM | TGI [40]: > 100 µM | TGI [41]: > 100 µM | TGI [42]: > 100 µM | TGI [43]: > 100 µM | TGI [44]: > 100 µM | TGI [45]: > 100 µM | TGI [46]: > 100 µM | TGI [47]: > 100 µM | TGI [48]: > 100 µM | TGI [49]: > 100 µM | TGI [50]: > 100 µM | TGI [51]: 36.5 µM | TGI [52]: > 100 µM | TGI [53]: > 100 µM | TGI [54]: > 100 µM | TGI [55]: > 100 µM

Cn1c(=O)c2c(nc3sc4c(n32)C(=O)c2c(O)ccc(O)c2C4=O)n(C)c1=O
TGI [1]: 4.37 µM | TGI [2]: 57.4 µM | TGI [3]: 59.6 µM | TGI [4]: 8.33 µM | TGI [56]: 17.7 µM | TGI [5]: 18.6 µM | TGI [6]: 1.9 µM | TGI [7]: 12.1 µM | TGI [57]: 26.7 µM | TGI [11]: 33.8 µM | TGI [12]: 17.5 µM | TGI [13]: 4.68 µM | TGI [14]: 4.72 µM | TGI [15]: 2.83 µM | TGI [17]: 30 µM | TGI [18]: 7.93 µM | TGI [58]: 64.1 µM | TGI [19]: 4.34 µM | TGI [20]: 25.4 µM | TGI [21]: 2.44 µM | TGI [22]: 11.6 µM | TGI [24]: 2.75 µM | TGI [26]: 6.48 µM | TGI [28]: 3.09 µM | TGI [59]: 3.41 µM | TGI [60]: 5.26 µM | TGI [61]: 15.5 µM | TGI [62]: 4.1 µM | TGI [29]: 5.08 µM | TGI [30]: > 100 µM | TGI [31]: 21.2 µM | TGI [32]: > 59.4 µM | TGI [63]: 0.369 µM | TGI [64]: 17.1 µM | TGI [33]: > 20.9 µM | TGI [34]: 2.92 µM | TGI [35]: 48.6 µM | TGI [36]: 11 µM | TGI [65]: 26.7 µM | TGI [37]: 2.04 µM | TGI [38]: 5.59 µM | TGI [39]: 24.5 µM | TGI [40]: > 100 µM | TGI [41]: 15.6 µM | TGI [42]: 17.5 µM | TGI [43]: 21.3 µM | TGI [44]: 8.35 µM | TGI [45]: > 100 µM | TGI [46]: 3.93 µM | TGI [47]: > 91.5 µM | TGI [48]: 16.1 µM | TGI [50]: 3.23 µM | TGI [51]: 1.78 µM | TGI [66]: 7.6 µM | TGI [52]: 15.2 µM | TGI [67]: > 48.7 µM | TGI [53]: 28.5 µM | TGI [54]: 8.5 µM | TGI [55]: 11.6 µM

CCCNCC(=O)O[C@]1(CC)C(=O)OCc2c1cc1n(c2=O)Cc2cc3ccccc3nc2-1
TGI [1]: 0.117 µM | TGI [2]: 0.849 µM | TGI [3]: 1.98 µM | TGI [4]: 0.233 µM | TGI [6]: 0.308 µM | TGI [7]: 3.07 µM | TGI [8]: > 100 µM | TGI [9]: 0.941 µM | TGI [10]: 0.114 µM | TGI [11]: > 100 µM | TGI [12]: 4.36 µM | TGI [15]: 0.553 µM | TGI [16]: > 100 µM | TGI [18]: 3.6 µM | TGI [19]: > 100 µM | TGI [20]: 4.68 µM | TGI [21]: > 100 µM | TGI [22]: 8.05 µM | TGI [23]: 19.2 µM | TGI [24]: 0.662 µM | TGI [25]: 67.6 µM | TGI [26]: 1.82 µM | TGI [27]: 1.96 µM | TGI [28]: 4.1 µM | TGI [29]: 0.0699 µM | TGI [30]: 0.331 µM | TGI [31]: 0.321 µM | TGI [32]: 0.154 µM | TGI [63]: 1.63 µM | TGI [33]: 2.63 µM | TGI [34]: 3.99 µM | TGI [35]: 3.96 µM | TGI [36]: 8.33 µM | TGI [37]: 0.88 µM | TGI [38]: 0.39 µM | TGI [39]: 2.46 µM | TGI [40]: 2.1 µM | TGI [41]: 0.136 µM | TGI [42]: 3.68 µM | TGI [43]: 32.8 µM | TGI [44]: 0.304 µM | TGI [45]: > 100 µM | TGI [46]: 0.215 µM | TGI [47]: > 100 µM | TGI [48]: 0.537 µM | TGI [52]: > 100 µM | TGI [67]: 0.244 µM | TGI [53]: 1.88 µM | TGI [54]: 1.12 µM | TGI [68]: 0.652 µM
